The source of these data is patent publication US11040026B2, “Muscarinic M1 receptor positive allosteric modulators” (SUVEN LIFE SCIENCES LIMITED, priority 2016, dated 2021).

Series [1] deals with T1, muscarinic M1 receptor (Homo sapiens, UniProt P11229).
T1 sequence (P11229 1-460): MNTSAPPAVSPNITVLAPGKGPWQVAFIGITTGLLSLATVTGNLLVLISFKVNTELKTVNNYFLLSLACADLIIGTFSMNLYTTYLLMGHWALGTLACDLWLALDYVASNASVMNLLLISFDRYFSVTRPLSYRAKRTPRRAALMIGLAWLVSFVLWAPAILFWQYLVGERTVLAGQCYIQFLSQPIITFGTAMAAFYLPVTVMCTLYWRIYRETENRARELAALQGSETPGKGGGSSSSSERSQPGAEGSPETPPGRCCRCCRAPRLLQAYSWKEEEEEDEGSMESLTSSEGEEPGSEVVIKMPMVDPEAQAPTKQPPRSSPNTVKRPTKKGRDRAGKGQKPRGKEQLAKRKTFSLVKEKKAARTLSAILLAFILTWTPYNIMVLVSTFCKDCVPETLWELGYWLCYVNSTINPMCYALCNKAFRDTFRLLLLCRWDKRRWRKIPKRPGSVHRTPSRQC
The experiment in a line: Allosteric potency EC50 for muscarinic M1 receptor (CHO pCRE-Luc reporter assay). As to conditions: in presence of EC20 of acetylcholine; CHO cells, luciferase reporter, 4 hours. It is filed as cell-based. The protocol:
Determination of Allosteric Potency EC50 Values for Muscarinic M1 Receptor:
A stable CHO cell line expressing recombinant human Muscarinic M1 receptor and pCRE-Luc reporter system was used for cell-based assay. The assay offers a non-radioactive based approach to determine binding of a compound to GPCRs. In this specific assay, the level of intracellular cyclic AMP which is modulated by activation or inhibition of the receptor is measured. The recombinant cells harbor luciferase reporter gene under the control of cyclic AMP response element.
The above cells were grown in 96 well clear bottom white plates in Hams F12 medium containing 10% fetal bovine serum (FBS). Prior to the addition of compounds or standard agonist, cells were serum starved overnight. Increasing concentrations of test compounds were added along with EC20 of acetylcholine in OptiMEM medium to the cells. The incubation was continued at 37° C. in CO2 incubator for 4 hours. Medium was removed and cells were washed with phosphate buffered saline. The cells were lysed and luciferase activity was measured in a Luminometer. Luminescence units were plotted against the compound concentrations using Graphpad software. EC50 values of the compounds were defined as the concentration required in stimulating the luciferase activity by 50% in presence of EC20 of acetylcholine and the results are provided in table 1.
Background: Reporter assays use an easily measured gene product as a stand-in for the process of interest.

Series [2] can be described thus: Rodent pharmacokinetic study. It is filed as in vivo, Male Wistar rats. Conditions: rat; for AUC(0-t) / clearance / half-life / Cmax: male, Wistar, plasma; for F: oral (gavage) 3 mg/kg vs intravenous 1 mg/kg. The procedure: Rodent Pharmacokinetic Study
Male Wistar rats (260±50 grams) were used as experimental animals. Animals were housed individually in polypropylene cage. Two days prior to study, male Wistar rats were anesthetized with isoflurane for surgical placement of jugular vein catheter. Rats were randomly divided for oral (3 mg/kg) and intravenous (1 mg/kg) dosing (n=3/group) and fasted overnight before oral dosing (p.o.). However, rats allocated to intravenous dosing food and water was provided ad libitum.
At pre-determined point, blood was collected through jugular vein and replenished with an equivalent volume of normal saline. Collected blood was transferred into a labeled eppendorf tube containing 10 μL of heparin as an anticoagulant. Typically blood samples were collected at following time points: 0.08, 0.25, 0.5, 1, 2, 4, 6, 8, and 24 hours post dose. Blood was centrifuged at 4000 rpm for 10 minutes. Plasma was separated and stored frozen at −80° C. until analysis. The concentrations of the test compounds were quantified in plasma by qualified LC-MS/MS method using suitable extraction technique. The test compounds were quantified in the calibration range around 1-1000 ng/mL in plasma. Study samples were analyzed using calibration samples in the batch and quality control samples spread across the batch.
Pharmacokinetic parameters Cmax, AUCt, T1/2, Clearance and Bioavailability (F) were calculated by non-compartmental model using standard non-compartmental model by using Phoenix WinNonlin 6.0.4 version Software package.

Series [3] can be described thus: Rodent brain penetration study. Conditions: male, Wistar, brain and plasma, po; rat, 3 mg/kg, p.o., brain-plasma ratio; read-out: Single dose Rat Brain Penetration (Cb/Cp) at 3 mg/kg, p.o. It is filed as in vivo, Male Wistar rats. The procedure: Rodent Brain Penetration Study
Male Wistar rats (260±40 grams) were used as experimental animals. Three animals were housed in each cage. Animals were given water and food ad libitum throughout the experiment and maintained on a 12 hours light/dark cycle.
Brain penetration was determined in discrete manner in rats. One day prior to dosing day, male Wistar rats were acclimatized and randomly grouped according to their weight. At each time point (0.50, 1 and 2 hours) n=3 animals were used.
The test compounds were suitably preformulated and administered orally at (free base equivalent) 3 mg/kg. Blood samples were removed via cardiac puncture by using isoflurane anesthesia. The animals were sacrificed to collect brain tissue. Plasma was separated and brain samples were homogenized and stored frozen at −20° C. until analysis. The concentrations of the test compounds in plasma and brain were determined using LC-MS/MS method.
The test compounds were quantified in plasma and brain homogenate by qualified LC-MS/MS method using suitable extraction technique. The test compounds were quantified in the calibration range of 1-500 ng/mL in plasma and brain homogenate. Study samples were analyzed using calibration samples in the batch and quality control samples spread across the batch. Extent of brain-plasma ratio (Cb/Cp) was calculated

In series [4] the test system is Male Wistar rats. The series can be described thus: Object recognition task model. It is filed as in vivo. Conditions: rat, 3 mg/kg, p.o. The protocol:
Object Recognition Task Model
Male Wistar rats (8-10 weeks old) were used as experimental animals. Four animals were housed in each cage. Animals were kept on 20% food deprivation from a day prior to experimentation. Water was provided ad libitum throughout the experiment. Animals were maintained on a 12 hours light/dark cycle in temperature and humidity controlled room. The experiment was carried out in an circular or square arena made up of acrylic. Rats were habituated to individual arenas for up to 1 hour in the absence of any objects on day 1.
One group of 12 rats received vehicle and another set of animals received test compounds, before familiar (T1) and choice (T2) trials. During the familiarization phase, (T1), the rats were placed individually in the arena for 3 minutes, in which two identical objects (a1 and a2) were positioned 10 cm from the wall. 24 hours after T1, trial for long-term memory test was performed. The same rats were placed in the same arena as they were placed in T1 trial. During the choice phase (T2) rats were allowed to explore the arena for 3 minutes in presence of a copy of familiar object (a3) and one novel object (b). During the T1 and T2 trial, explorations of each object (defined as sniffing, licking, chewing or having moving vibrissae whilst directing the nose towards the object at a distance of less than 1 cm) were recorded using stopwatch.
T1 is the total time spent exploring the familiar objects (a1+a2).
T2 is the total time spent exploring the familiar object and novel object (a3+b).
The object recognition test was performed as described in Behav. Brain Res., 1988, 31, 47-59.

The term EC50 denotes the concentration that produces a half-maximal response. Broadly, the AUC(0-t) is the area under the concentration-time curve up to a stated or last time point. The term clearance denotes the volume of plasma or blood freed of the substance per unit of time. One may read the half-life as the time needed for the level to fall by half in the phase considered. Lower therefore signals fast loss. The term Cmax denotes the peak of the concentration-time curve. In the case of `CN1CCc2c(Cc3ccnc(F)c3)cc(C(=O)N[C@H]3CCCC[C@@H]3O)nc21` [Example 73, N-[(1S,2S)-2-Hydroxycyclohexyl]-4-(2-fluoropyridin-4-ylmethyl)-1-methyl-2,3-dihydro-1H-pyrrolo[2,3-b]pyridine-6-carboxamide], the EC50 in series [1] stood at 786 nM. In series [2] (intravenous (bolus), 1 mg/kg), this compound showed an AUC(0-t) of 742 ± 40 ng·h/mL, a clearance of 22 ± 1 mL/min/kg and a half-life of 66 ± 18 min. In series [2] (oral (gavage), 3 mg/kg), this compound had an AUC(0-t) of 1740 ± 296 ng·h/mL, a Cmax of 1100 ± 85 ng/mL and a half-life of 72 ± 6 min. Besides, the F in series [2] amounted to 78 ± 13%.

In the case of `O=C(N[C@H]1CCCC[C@@H]1O)c1cc(Cc2ccc(F)cc2)c2c(n1)OCCO2` [Example 103, N-[(1S,2S)-2-Hydroxycyclohexyl]-8-(4-fluorobenzyl)-2,3-dihydro-[1,4]dioxino[2,3-b]pyridine-6-carboxamide], the EC50 in series [1] was 131 nM. In series [2] (intravenous (bolus), 1 mg/kg), this compound gave an area under the curve AUC(0-t) of 791 ± 11 ng·h/mL, a clearance of 21 mL/min/kg and a half-life of 42 ± 6 min. In series [2] (oral (gavage), 3 mg/kg), this compound showed an AUC(0-t) of 1090 ± 102 ng·h/mL, a Cmax of 825 ± 41 ng/mL and a half-life of 30 ± 12 min. In series [2], the F is 46 ± 4%. Also, the Kp in series [3] is 0.63 ± 0.05. Besides, the Inference result in series [4] is on record as “Active”. In series [4] (choice trial 24 hours after T1), the “Exploration time mean ± S.E.M, Familiar object” value is 12.20 ± 1.59 s and the “Exploration time mean ± S.E.M, Novel object” value is 19.17 ± 3.01 s.

As to `Cl.O=C(N[C@H]1CCCC[C@@H]1O)c1cc(Cc2ccc(F)cc2)c2c(n1)CNCC2` [Example 87, N-[(1S,2S)-2-Hydroxycyclohexyl]-4-(4-fluorobenzyl)-5,6,7,8-tetrahydro[1,7]naphthyridine-2-carboxamide Hydrochloride], the EC50 in series [1] worked out at 241 nM. Moreover, in series [2] (intravenous (bolus), 1 mg/kg), the AUC(0-t) was determined as 224 ± 66 ng·h/mL, the clearance amounted to 79 ± 27 mL/min/kg and the half-life was 90 ± 6 min. In series [2] (oral (gavage), 3 mg/kg), this compound gave an AUC(0-t) of 219 ± 70 ng·h/mL, a Cmax of 97 ± 39 ng/mL and a half-life of 42 ± 18 min. This compound also yielded a F in series [2] of 32 ± 10%. Further, the Kp in series [3] was found to be 0.15 ± 0.01.

Regarding `CN1CCOc2c(Cc3ccc(F)cc3)cc(C(=O)N[C@@H]3CCOC[C@H]3O)nc21` (single isomer, unassigned; isomer-ii) [Example 124, trans-N-(3-Hydroxytetrahydropyran-4-yl)-8-(4-fluorobenzyl)-4-methyl-2H-pyrido[3,2-b][1,4]oxazine-6-carboxamide (Isomer-II)], in series [2] (intravenous (bolus), 1 mg/kg), the AUC(0-t) was determined as 787 ± 130 ng·h/mL, the clearance was 21 ± 3 mL/min/kg and the half-life was 66 ± 6 min. In series [2] (oral (gavage), 3 mg/kg), this compound showed an AUC(0-t) of 526 ± 126 ng·h/mL, a Cmax of 306 ± 66 ng/mL and a half-life of 30 min. In series [2], this compound showed an F of 22 ± 5%. In addition, the Kp in series [3] is 0.52 ± 0.05.

On to `Cn1ccc2c(Cc3ccc(F)cc3)cc(C(=O)N[C@@H]3COCC[C@@H]3O)nc21` (single isomer, unassigned; isomer-i) [Example 65, cis-N-(4-Hydroxytetrahydropyran-3-yl)-4-(4-fluorobenzyl)-1-methyl-1H-pyrrolo[2,3-b]pyridine-6-carboxamide (Isomer-I)], for which the Kp in series [3] turned out to be 0.32.

Consider `CN1CCOc2c(Cc3ccc(-n4cccn4)cc3)cc(C(=O)N[C@H]3CCCC[C@@H]3O)nc21` [Example 129, N-[(1S,2S)-2-Hydroxycyclohexyl]-8-[4-pyrazol-1-ylbenzyl]-4-methyl-2H-pyrido[3,2-b][1,4]oxazine-6-carboxamide], for which, in series [1], the EC50 amounted to 15 nM.

Consider `Cn1ccc2c(Cc3ccncc3)cc(C(=O)N[C@H]3CCCC[C@@H]3O)nc21` [Example 14, N-[(1S,2S)-2-Hydroxycyclohexyl]-4-(pyridin-4-ylmethyl)-1-methyl-1H-pyrrolo[2,3-b]pyridine-6-carboxamide], for which the EC50 in series [1] was 891 nM.

For `Cn1ccc2c(Cc3ccc(Cl)nc3)cc(C(=O)N[C@H]3CCOC[C@H]3O)nc21` (single isomer, unassigned; isomer-i) [Example 49, cis-N-(3-Hydroxytetrahydropyran-4-yl)-4-(2-chloropyridin-5-ylmethyl)-1-methyl-1H-pyrrolo[2,3-b]pyridine-6-carboxamide (Isomer-I)], the EC50 in series [1] came to 1410 nM.

With `Cn1ccc2c(Cc3ccc(-c4cscn4)cc3)cc(C(=O)N[C@@H]3CCOC[C@H]3O)nc21` (single isomer, unassigned; isomer-ii) [Example 55, trans-N-(3-Hydroxytetrahydropyran-4-yl)-4-[4-(thiazol-4-yl)benzyl]-1-methyl-1H-pyrrolo[2,3-b]pyridine-6-carboxamide (Isomer-II)], the EC50 in series [1] turned out to be 32 nM.

Turning to `Cn1ccc2c(Cc3ccc(-c4cscn4)cc3)cc(C(=O)N[C@H]3CCCC[C@@H]3O)nc21` [Example 5, N-[(1S,2S)-2-Hydroxycyclohexyl]-4-(4-thiazol-4-ylbenzyl)-1-methyl-1H-pyrrolo[2,3-b]pyridine-6-carboxamide], the EC50 in series [1] was determined as 130 nM.

As for `Cn1ccc2c(Cc3ccc(F)cc3)cc(C(=O)N[C@H]3CCOC[C@H]3O)nc21` (single isomer, unassigned; isomer-ii) [Example 37, cis-N-(3-Hydroxytetrahydropyran-4-yl)-4-(4-fluorobenzyl)-1-methyl-1H-pyrrolo[2,3-b]pyridine-6-carboxamide (Isomer-II)], the EC50 in series [1] amounted to 1250 nM.
